# Patent publication US20030166548A1, “PLAP polypeptides and methods of producing and using same” (Board of Regents, The University of Texas System, priority 1997, published 2003)
# “And” between values parts separate entries of the source, which are not always exact repeats. Identical values can stand only once.
# T1: affinity-purified PLA2 enzyme isolated from synovial fluid of rheumatoid arthritis patients (Homo sapiens, UniProt P14555)
# T1 construct: from tissue
# T1 sequence (P14555 21-144): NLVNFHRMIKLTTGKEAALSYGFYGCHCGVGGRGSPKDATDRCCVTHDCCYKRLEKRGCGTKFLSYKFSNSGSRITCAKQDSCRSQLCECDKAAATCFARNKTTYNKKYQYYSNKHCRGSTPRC
# T2: bee venom PLA2 (bee), P00630
# T2 chain: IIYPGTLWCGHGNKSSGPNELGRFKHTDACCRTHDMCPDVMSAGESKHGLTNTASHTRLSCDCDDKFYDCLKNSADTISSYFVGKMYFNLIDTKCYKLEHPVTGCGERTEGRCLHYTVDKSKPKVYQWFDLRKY
# Legend:
# human serum PLA2 (human) [1] = target: human serum PLA2 (human) (UniProt P04054)
# human serum PLA2 (human) [2] = target: human serum PLA2 (human) (UniProt P04054); test: cell-based or functional assay
# [3] = target: PLA2 of synovial fluid from rheumatoid arthritis patients (human (rheumatoid arthritis patients)) (UniProt P14555); test: cell-based or functional assay
# synovial fluid PLA2 = test: Interference of streptavidin-peroxidase binding to biotin-melittin by synovial fluid PLA2; design: species or system human; conditions: plate coated with biotinylated synthetic melittin, FIG. 6B
# Human serum PLA2 = test: PLA2 assay of human serum fractions eluted from MLT-Sepharose column, [3H]-oleic acid-labeled E. coli substrate; assay type: biochemical; conditions: for PLA2 activity: Melittin 5 μM
# Method: (§1) The procedure is a modification of that described by Elsbach and Weiss (1991). E. coli strain SJ198 was grown in 10 ml M9 minimal medium plus 50 μl glycerol, 100 μl vitamin mix, 40 μl methionine (25 mg/ml), 50 μl [^3H]-oleic acid (0.1 μCi/μl), and 100 μl casamino acids (100 mg/ml). After incubation at 37° C. overnight, the culture was centrifuged and washed three times in PBS, autoclaved for 15 minutes, washed again three times in PBS and stored at −70° C. The reaction mixture contained 10 μl of 5×assay of the PLA2 enzyme preparation, 10 μl of [^3H]-oleic acid-labeled E. coli cells, and enough H2O to adjust the total volume to 50 μl. The reaction mixture was incubated for 15 minutes at 37° C. in a waterbath. To stop the reaction, the tubes were transferred immediately to an ice bath and an equal volume of either 1 M HCl or 4 volumes cold PBS was added. After centrifugation in a microfuge at 4° C. for 10 minutes, an aliquot equal to 25% of the volume of the supernatant was used to measure the amount of [^3H]-labeled oleic acid released from the E. coli cells by PLA2 using liquid scintillation counting.
# Isolation of PLA2 from human serum: 10 ml of heat-inactivated human serum Gemini Bio Product Inc. (Calabasas, Calif.) was diluted 1:10 with PBS and loaded onto Melittin-Sepharose as well as PLAP-Sepharose columns pre-equilibrated with PBS. Columns were washed with 500 ml of PBS overnight and eluted with 0.5M glycine/HCl buffer, pH 2.8 and 2 ml fractions were collected, neutralized to pH 7.2 with Tris-HCl buffer and analyzed for PLA2 activity using [^3H]labeled oleic acid—E. coli cells as substrate. Eluted fractions were concentrated and dialyzed in centricon 10 (Amicon, Inc., Beverly, Mass.) and the pass through was discarded. The retentate was again passed through centricon 30 and concentrated to about ⅕th of the volume. Both retentate and pass through were subjected to PLA2, assay with and without melittin.
# [4] = target: T1, affinity-purified PLA2 enzyme isolated from synovial fluid of rheumatoid arthritis patients; test: PLA2 assay, unsonicated vesicles labeled with [14C]-phosphatidylcholine, affinity-purified enzyme; assay type: biochemical
# Method: (§2) Radiolabeled phosphatidylcholine or phosphatidylethanolamine containing [^14C]-arachidonic acid in the sn-2 position of the phospholipid was dried under nitrogen and the lipid vesicles were prepared in 0.05% Triton X-100. The reaction mixture contained 10 μl of phospholipid substrate, 10 μl of 5× assay buffer (500 mM Tris[hydroxymethyl]aminomethane […]HCl (Tris HCl), pH 8.0; 500 mM NaCl; 5.0% fatty acid-free bovine serum albumin (BSA); and 5 mM CaCl2), 10 μl PLA2 enzyme preparation, and sufficient H2O to adjust the total volume to 50 μl The reaction mixture was incubated for 30 minutes at 37° C. in a waterbath and stopped by the addition of 50 μl of chloroform and methanol (1:3), containing 200 μg/ml of unlabeled arachidonic acid and then the mixture was vortexed Lipid was extracted by adding 50 μl of chloroform and 50 μl of 4M KCl, after which, the mixture was vortexed and centrifuged in a microfuge at 14,000 rpm for 10 minutes A 25 μl aliquot of the organic phase was spotted onto glass silica gel plates (Whatman LK6DF) and placed in a thin layer chromatography chamber with a solvent system containing petroleum ether, diethyl ether, and acetic acid (5:25:1) for 30 minutes. The lipid spots were made visible by placing the silica gel plates in a chamber containing iodine vapor. The silica gel region corresponding to arachidonic acid was scraped and transferred to scintillation vials containing 10 ml of scintillation cocktail, which is commercially available and designed to measure the amount of radioactivity in aqueous samples when used with a liquid scintillation counter. The amount of radionuclide corresponding to [^14C]-arachidonic acid in each vial was determined in a Beckman liquid scintillation counter. Results of these assays are shown in Tables 1 and 2 listed after Example 3.
# [5] = target: T3, PLA2 from bovine pancreas (Bos taurus, UniProt P00593); test: PLA2 assay using unsonicated vesicles; assay type: biochemical; conditions: Bovine P., peptide 1 μg
# Method: (§3) In general, assays involve incubation of purified PLA2 or a mixture believed to contain PLA2, such as synovial fluid, with a PLA2 substrate containing radio-labeled arachidonic acid in the presence of the inhibitor of interest. Suitable substrates for PLA2 reactions include any glycerol-3-phosphate with arachidonic acid substituted at the sn-2 position. The preferred substrates of the assays of this invention include [^14C]-arachidonic acid-substituted phosphatidylcholine or [^14C]-arachidonic acid-substituted phosphatidylethanolamine. After the reaction is stopped by addition of chloroform and methanol, TLC chromatography is used to separate the released [^14C] arachidonic acid from [^14C] arachidonic acid-labeled phosphatidylcholine/ethanolamine, which may be quantified by scintillation counting.
# as §2
# PLA2 from snake venom [6] = test: PLA2 assay using unsonicated vesicles; assay type: biochemical; conditions: Snake V., peptide 1 μg
# Method: as §3, §2
# [7] = target: T1, affinity-purified PLA2 enzyme isolated from synovial fluid of rheumatoid arthritis patients; test: PLA2 assay, [3H]-oleic acid-E. coli, affinity-purified enzyme; assay type: biochemical; conditions: mean of three determinations
# Method: as §1
# [8] = target: T3, PLA2 from bovine pancreas; test: PLA2 assay using [3H]-oleic acid labeled E. coli; assay type: biochemical; conditions: Bovine P., peptide 1 μg
# Method: (§4) PLA2 activity may also be assayed using [^3H]-oleic acid labeled Escherichia coli, in a modification of the procedure previously described by [Elsbach and Weiss, 1991]. E. coli cells grown in the presence of [^3H]-oleic acid are incubated with PLA2 enzyme. The reaction is quenched either by addition of 1M HCl or by dilution in cold phosphate buffered saline (PBS). The amount of [^3H]-oleic acid released from the E. coli cells by PLA2 is measured using scintillation counting.
# as §1
# PLA2 from snake venom [9] = test: PLA2 assay using [3H]-oleic acid labeled E. coli; assay type: biochemical; conditions: Snake V., peptide 1 μg
# Method: as §4, §1
# PLA2 from bee venom [10] = target: T4, PLA2 from bee venom (Apis mellifera, UniProt P00630); assay type: biochemical
# phospholipase D (PLD) = test: Synthetic melittin added to dissociated membranes from U-937 cells; assay type: biochemical; conditions: dissociated membranes from human monocyte cell line U-937
# [11] = tested on: PLA2 from synovial fluid from rheumatoid arthritis patients; test: PLA2 assay using unsonicated vesicles; assay type: biochemical, human; conditions: Synovial F., peptide 1 μg
# Method: as §3
# Radiolabeled phosphatidylcholine or phosphatidylethanolamine containing [^14C]-arachidonic acid in the sn-2 position of the phospholipid was dried under nitrogen and the lipid vesicles were prepared in 0.05% Triton X-100. […] The silica gel region corresponding to arachidonic acid was scraped and transferred to scintillation vials containing 10 ml of scintillation cocktail, which is commercially available and designed to measure the amount of radioactivity in aqueous samples when used with a liquid scintillation counter. […]
# PLA2 from bee venom [12] = target: T4, PLA2 from bee venom; test: biochemical; assay type: biochemical
# [13] = tested on: PLA2 from synovial fluid from rheumatoid arthritis patients; test: PLA2 assay using [3H]-oleic acid labeled E. coli; assay type: biochemical, human; conditions: Synovial F., peptide 1 μg
# Method: as §4
# as §1, with “After centrifugation in a microfuge at 4° C. for 10 minutes, an aliquot equal to 25% of the volume of the supernatant was used to measure the amount of [^3H]-labeled oleic acid released from the E. coli cells by PLA2 using liquid scintillation counting.” left out
# [14] = target: T2, bee venom PLA2 (bee), P00630; test: cell-based or functional assay
# [15] = A: [14C]-phosphatidylcholine vesicles
# [16] = B: phosphatidylethanolamine vesicles
# [17] = C: [3H]-oleic acid-labeled E. coli, stopped with cold PBS
# [18] = D: [3H]-oleic acid-labeled E. coli, stopped with 1N HCl
# T3 sequence (P00593 23-145): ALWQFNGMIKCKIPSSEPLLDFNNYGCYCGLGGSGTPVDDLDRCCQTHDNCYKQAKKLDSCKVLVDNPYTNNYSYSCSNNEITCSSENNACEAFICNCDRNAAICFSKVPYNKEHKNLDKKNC
# human serum PLA2 (human), sequence (P04054 23-148 limits assumed): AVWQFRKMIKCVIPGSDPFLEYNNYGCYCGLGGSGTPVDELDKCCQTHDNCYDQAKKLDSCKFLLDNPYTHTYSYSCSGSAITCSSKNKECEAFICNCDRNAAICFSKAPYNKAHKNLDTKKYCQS
molecule,measurement,setting,value
synthetic melittin (peptide),Purification,human serum PLA2 (human) [1],1520 fold
same,reduction in PLA2 activity in the presence of melittin,human serum PLA2 (human) [2],4 fold
same,Inhibitory Potency,[3],80%
biotinylated synthetic melittin: biotinylated synthetic melittin used to coat microtiter plates,interference of synovial fluid with streptavidin-peroxidase binding,synovial fluid PLA2,dose-dependent interference
CC[C@H](C)[C@H](NC(=O)CN)C(=O)NCC(=O)N[C@@H](C)C(=O)N[C@H](C(=O)N[C@@H](CC(C)C)C(=O)N[C@@H](CCCCN)C(=O)N[C@H](C(=O)N[C@@H](CC(C)C)C(=O)N[C@H](C(=O)N[C@H](C(=O)NCC(=O)N[C@@H](CC(C)C)C(=O)N1CCC[C@H]1C(=O)N[C@@H](C)C(=O)N[C@@H](CC(C)C)C(=O)N[C@H](C(=O)N[C@@H](CO)C(=O)N[C@@H](Cc1c[nH]c2ccccc12)C(=O)N[C@H](C(=O)N[C@@H](CCCCN)C(=O)N[C@@H](CCCNC(=N)N)C(=O)N[C@@H](CCCCN)C(=O)N[C@@H](CCCNC(=N)N)C(=O)N[C@@H](CCC(N)=O)C(=O)N[C@@H](CCC(N)=O)C(N)=O)[C@@H](C)CC)[C@@H](C)CC)[C@@H](C)O)[C@@H](C)O)C(C)C)C(C)C [Melittin],PLA2 activity,Human serum PLA2; Human serum PLA2 eluted from MLT-Sepharose column,219 ± 16.3 nano mol/min/ml
same,PLA2 activity,Human serum PLA2; eluate Centricon 30 concentrated (5 times),192 ± 5.44 nano mol/min/ml
same,PLA2 activity,Human serum PLA2; eluate Centricon 30 pass through,172 ± 8.73 nano mol/min/ml
same,reduction in PLA2 activity in the presence of melittin,Human serum PLA2; fractions after concentration by centricon 10 or 30,4 fold
same,Inhibitory Potency,"[4]; Table 2A, follows Table 2",80%
same,Phospholipase A2 activity B(× 10^−3) [14C]-phosphatidylcholine,"[4]; peptide 1.0 μM, mean of three determinations",0.055 ± 0.010 × 10^−3 μ moles/min/ml
same,order of inhibitory potency,[4]; rank order from Table 2,MLT>G25>G22>G141>G27>G23
same,Phospholipase A2 activity,[5]; [15],3.6 ± 0.9 × 10^−5 μmoles/min/mg of protein
same,Phospholipase A2 activity,[5]; [16],2.96 ± 0.0 × 10^−3 μmoles/min/mg of protein
same,Phospholipase A2 activity,PLA2 from snake venom [6]; [15],1.41 ± 0.84 μmoles/min/mg of protein
same,Phospholipase A2 activity,PLA2 from snake venom [6]; [16],0.05 ± 0.03 μmoles/min/mg of protein
same,Phospholipase A2 activity C [3H]-oleic acid-E. coli,[7]; peptide 1.0 μM,0.50 ± 0.12 μ moles/min/ml
same,Phospholipase A2 activity C [3H]-oleic acid-E. coli,[7]; peptide 5.0 μM,0.12 ± 0.02 μ moles/min/ml
same,Phospholipase A2 activity C [3H]-oleic acid-E. coli,[7]; peptide 10 μM,0.06 ± 0.03 μ moles/min/ml
same,Phospholipase A2 activity,[8]; [17],0.06 ± 0.03 μmoles/min/mg of protein
same,Phospholipase A2 activity,[8]; [18],1.51 ± 0.17 μmoles/min/mg of protein
same,Phospholipase A2 activity,PLA2 from snake venom [9]; [17],61.5 ± 2.75 μmoles/min/mg of protein
same,Phospholipase A2 activity,PLA2 from snake venom [9]; [18],59.13 ± 13.97 μmoles/min/mg of protein
same,type of inhibition of bee venom PLA2,PLA2 from bee venom [10],noncompetitive inhibitor
same,effect on phospholipase D (PLD),phospholipase D (PLD),stimulates PLD
same,effect on phospholipase D (PLD),phospholipase D (PLD); listed as synthetic melittin,resulted in the formation of phosphatidic acid and release of arachidosic acid
same,Phospholipase A2 activity,[11]; [15],2.9 ± 0.0 × 10^−4 μmole/min ml
same,Phospholipase A2 activity,[11]; [16],4.7 ± 0.0 × 10^−4 μmole/min ml
same,EC50,PLA2 from bee venom [12],20 nM
same,Phospholipase A2 activity,PLA2 from bee venom [12],801 ± 55.0 μmoles/min/mg of protein and 1315.0 ± 48.2 μmoles/min/mg of protein
same,amount of synthetic melittin required to inhibit maximal PLA2 activity,PLA2 from bee venom [12],30 mM
same,Phospholipase A2 activity,[13]; [17],5.5 ± 0.4 µmol/min/mL
same,Phospholipase A2 activity,[13]; [18],43.65 ± 3.19 µmol/min/mL
GIGAVLKVLTTGLPALISWIKRKRQQ (modifications not checked) [synthetic melittin],molar ratio of melittin to PLA2 at maximal inhibition (mol melittin per mol PLA2),[14],30
